The target of one assay is human GLP-1 receptor (Homo sapiens, UniProt P43220). The assay can be described thus: Functional GLP-1 receptor assay, in vitro potency (CRE luciferase; whole cells). The format is cell-based.
Assay [1] concerns Mouse monocyte/macrophage cell line, RAW 264.7. The assay can be described thus: Cholesterol efflux assay (3H-cholesterol, macrophage cell line). The class given is cell-based. The settings on record: RAW 264.7, 4 hrs incubation, 0.1% human serum albumin; for 4 h Cholesterol Efflux Emax: ABCA1-mediated efflux.
Setting [2] is: BHK cells expressing human GLP-1 receptor, 0% HSA, read-out: GLP1R CRE luc 0% HSA EC50 Mean Value.

pEC50: −log10 of the molar value. Where two headings read alike, the source gives them in different places. Where a SMILES comes first, the peptide text is derived from it. [ ]: non-standard residue; d: D form. Aib = CC(C)(N)C(=O)O

As usually defined, the pEC50 is the EC50 on a negative log10 scale, so that one unit is a factor of ten.

Chain of human GLP-1 receptor (P43220 24-463): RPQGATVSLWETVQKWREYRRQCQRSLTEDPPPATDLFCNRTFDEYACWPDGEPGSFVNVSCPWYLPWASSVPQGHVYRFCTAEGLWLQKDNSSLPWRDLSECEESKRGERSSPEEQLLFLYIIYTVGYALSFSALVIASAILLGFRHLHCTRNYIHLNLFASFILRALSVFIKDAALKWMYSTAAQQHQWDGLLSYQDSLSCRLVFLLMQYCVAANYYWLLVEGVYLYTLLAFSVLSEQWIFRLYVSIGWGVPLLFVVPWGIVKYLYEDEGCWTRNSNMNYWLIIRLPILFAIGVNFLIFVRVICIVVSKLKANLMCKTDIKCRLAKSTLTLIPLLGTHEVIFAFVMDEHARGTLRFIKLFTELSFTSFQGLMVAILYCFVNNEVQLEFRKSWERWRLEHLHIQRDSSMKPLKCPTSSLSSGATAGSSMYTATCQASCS

Regarding `CC[C@H](C)[C@H](NC(=O)[C@H](Cc1ccccc1)NC(=O)[C@H](CCC(=O)O)NC(=O)[C@H](CCCCN)NC(=O)[C@@H](NC(=O)[C@H](C)NC(=O)[C@H](CCC(=O)O)NC(=O)CNC(=O)[C@H](CCC(=O)O)NC(=O)[C@H](CC(C)C)NC(=O)[C@H](Cc1ccc(O)cc1)NC(=O)[C@H](CO)NC(=O)[C@H](CO)NC(=O)[C@@H](NC(=O)[C@H](CC(=O)O)NC(=O)[C@H](CO)NC(=O)[C@@H](NC(=O)[C@H](Cc1ccccc1)NC(=O)[C@@H](NC(=O)CNC(=O)[C@H](CCC(=O)O)NC(=O)C(C)(C)NC(=O)[C@@H](N)Cc1c[nH]cn1)[C@@H](C)O)[C@@H](C)O)C(C)C)C(C)C)C(=O)N[C@@H](C)C(=O)N[C@@H](Cc1c[nH]c2ccccc12)C(=O)N[C@@H](CC(C)C)C(=O)N[C@H](C(=O)N[C@@H](CCC(=O)O)C(=O)N[C@@H](CCCCN)C(=O)N[C@H](C(=O)N[C@@H](CCCCN)C(=O)N[C@@H](CCC(=O)O)C(=O)N[C@@H](CCC(=O)O)C(=O)N[C@@H](CC(C)C)C(N)=O)C(C)C)C(C)C` [Compound 116, [Aib8,Glu23,Val25,Glu34,Lys35,Val36,Lys37]-GLP-1-(7-37)-peptidyl-Glu-Glu-Leu amide] (H-H[Aib]EGTFTSDVSSYLEGEAVKEFIAWLVEKVKEEL-NH2), the pEC50 is 10.60 on human GLP-1 receptor (setting [2]) and 10.80 on human GLP-1 receptor (GLP1R CRE luc 1% HSA EC50 Mean Value, BHK cells expressing human GLP-1 receptor, 1% HSA). The “4 h Cholesterol Efflux Emax” value in assay [1] worked out at 131%.
In the case of `CC[C@H](C)[C@H](NC(=O)[C@H](Cc1ccccc1)NC(=O)[C@H](CCC(=O)O)NC(=O)[C@H](CCCCN)NC(=O)[C@@H](NC(=O)[C@H](C)NC(=O)[C@H](CCC(=O)O)NC(=O)CNC(=O)[C@H](CCC(=O)O)NC(=O)[C@H](CC(C)C)NC(=O)[C@H](Cc1ccc(O)cc1)NC(=O)[C@H](CO)NC(=O)[C@H](CO)NC(=O)[C@@H](NC(=O)[C@H](CC(=O)O)NC(=O)[C@H](CO)NC(=O)[C@@H](NC(=O)[C@H](Cc1ccccc1)NC(=O)[C@@H](NC(=O)CNC(=O)[C@H](CCC(=O)O)NC(=O)C(C)(C)NC(=O)[C@@H](N)Cc1c[nH]cn1)[C@@H](C)O)[C@@H](C)O)C(C)C)C(C)C)C(=O)N[C@@H](C)C(=O)N[C@@H](Cc1c[nH]c2ccccc12)C(=O)N[C@@H](CC(C)C)C(=O)N[C@H](C(=O)N[C@@H](CCC(=O)O)C(=O)N[C@@H](CCCCN)C(=O)N[C@H](C(=O)N[C@@H](CCCCN)C(=O)N[C@@H](CCC(=O)O)C(=O)NCC(=O)N[C@@H](CC(C)C)C(N)=O)C(C)C)C(C)C` [Compound 117, [Aib8,Glu23,Val25,Glu34,Lys35,Val36,Lys37]-GLP-1-(7-37)-peptidyl-Glu-Gly-Leu amide] (H-H[Aib]EGTFTSDVSSYLEGEAVKEFIAWLVEKVKEGL-NH2), the pEC50 at human GLP-1 receptor (setting [2]) was 10.96. In addition, the “4 h Cholesterol Efflux Emax” value in assay [1] was determined as 114%.
Regarding `CC[C@H](C)[C@H](NC(=O)[C@H](Cc1ccccc1)NC(=O)[C@H](CCC(=O)O)NC(=O)[C@H](CCCCN)NC(=O)[C@@H](NC(=O)[C@H](C)NC(=O)[C@H](CCC(=O)O)NC(=O)CNC(=O)[C@H](CCC(=O)O)NC(=O)[C@H](CC(C)C)NC(=O)[C@H](Cc1ccc(O)cc1)NC(=O)[C@H](CO)NC(=O)[C@H](CO)NC(=O)[C@@H](NC(=O)[C@H](CC(=O)O)NC(=O)[C@H](CO)NC(=O)[C@@H](NC(=O)[C@H](Cc1ccccc1)NC(=O)[C@@H](NC(=O)CNC(=O)[C@H](CCC(=O)O)NC(=O)C(C)(C)NC(=O)[C@@H](N)Cc1c[nH]cn1)[C@@H](C)O)[C@@H](C)O)C(C)C)C(C)C)C(=O)N[C@@H](C)C(=O)N[C@@H](Cc1c[nH]c2ccccc12)C(=O)N[C@@H](CC(C)C)C(=O)N[C@H](C(=O)N[C@@H](CCC(=O)O)C(=O)N[C@@H](CCCCN)C(=O)N[C@H](C(=O)N[C@@H](CCCCN)C(=O)N[C@@H](CCC(=O)O)C(=O)N[C@H](C(=O)N[C@@H](CC(C)C)C(N)=O)C(C)C)C(C)C)C(C)C` [Compound 120, [Aib8,Glu23,Val25,Glu34,Lys35,Val36,Lys37]-GLP-1-(7-37)-peptidyl-Glu-Val-Leu amide] (H-H[Aib]EGTFTSDVSSYLEGEAVKEFIAWLVEKVKEVL-NH2; N-terminus assumed), the pEC50 was 9.70 on human GLP-1 receptor (GLP1R CRE luc 0% HSA EC50 Mean Value) and 6.42 in assay [1] (read-out: 4 h Cholesterol Efflux EC50, ABCA1-mediated efflux (CPT-cAMP induced minus non-induced)). In addition, the “4 h Cholesterol Efflux Emax” value in assay [1] was found to be 142%.

Values taken from patent publication US20150344540A1, “NOVEL GLP-1 RECEPTOR AGONISTS WITH CHOLESTEROL EFFLUX ACTIVITY” (NOVO NORDISK A/S, priority 2012, published 2015).
